# What was measured:
# Type in all cases: biochemical
# [1] = biological target: T1, MKK4 (Homo sapiens, UniProt P45985); test: 33PanQinase kinase assay, MKK4 potency; settings: based on inhibition of enzyme activity at a single concentration or on IC50-values
# T1 construct: purchased ProQinase GmbH, Freiburg, Germany (assay service)
# T1 sequence (P45985 1-399): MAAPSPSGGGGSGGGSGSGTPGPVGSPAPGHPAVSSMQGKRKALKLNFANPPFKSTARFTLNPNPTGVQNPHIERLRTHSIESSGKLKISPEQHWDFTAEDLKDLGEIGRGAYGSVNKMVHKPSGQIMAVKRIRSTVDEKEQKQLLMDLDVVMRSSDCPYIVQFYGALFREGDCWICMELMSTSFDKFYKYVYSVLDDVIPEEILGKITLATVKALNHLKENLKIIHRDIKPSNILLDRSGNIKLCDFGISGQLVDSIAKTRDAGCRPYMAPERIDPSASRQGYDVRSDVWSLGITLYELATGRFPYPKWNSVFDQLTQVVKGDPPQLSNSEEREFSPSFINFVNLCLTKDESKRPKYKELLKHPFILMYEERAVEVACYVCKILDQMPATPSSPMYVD
# Method: (§1) The kinase activities of the compounds of the invention were measured using the 33PanQinase® Assay Service provided by ProQinase GmbH, Freiburg, Germany. Details of the assay conditions are disclosed on the website of ProQinase (https://www.proqinase.com/products-services-biochemical-assay-services/kinase-assays).
# (§2) In brief, all kinase assays were performed in 96-well FlashPlates™ from PerkinElmer (Boston, MA, USA) in a 50 μl reaction volume. The reaction cocktail was pipetted in four steps in the following order: • 20 μl of assay buffer (standard buffer) • 5 μl of ATP solution (in H2O) • 5 μl of test compound (in 10% DMSO) • 20 μl enzyme/substrate mix
# (§3) The assay for all protein kinases contained 70 mM HEPES-NaOH pH7.5, 3 mM MgCl2, 3 mM MnCl2, 3 μM Na-orthovanadate, 1.2 mM DTT, 50 μg/ml PEG20000, ATP (variable concentrations, corresponding to the apparent ATP-Km of the respective kinase), [γ-^33P]-ATP (approx. […] per well), protein kinase and substrate.
# (§4) The reaction cocktails were incubated at 30° C. for 60 minutes. The reaction is stopped with 50 μl of 2% (v/v) H3PO4, plates were aspirated and washed two times with 200 μl 0.9% (w/v) NaCl. Incorporation of ^33Pi was determined with a microplate scintillation counter (Microbeta, Wallac).
# (§5) All assays were performed with a BeckmanCoulter/SAGIAN™ Core System.
# (§6) In case of single concentration assays, the potency of the test compound is expressed as % residual activity. For determination of IC50-values, serial dilutions in the final concentration range between 100 μM and 3 nM (10 concentrations) were tested. The fitting model for the IC50 determinations was “Sigmoidal response (variable slope)” with parameters “top” fixed at 100% and “bottom” at 0%. The fitting method used was a least-squares fit.
# [2] = biological target: T2, BRaf (Homo sapiens, UniProt P15056); test: 33PanQinase kinase assay, selectivity against BRaf; settings: ratio IC50 (BRaf)/IC50 (MKK4)
# T2 construct: purchased ProQinase GmbH, Freiburg, Germany (assay service)
# Method: as §1, §2, §3, §4, §5, §6
# (§7) Selectivity of test compounds against BRaf, JNK1 and MKK7, altogether denominated as off-targets was calculated by the ratio of IC50 (off-target)/IC50 (MKK4) and categorized as follows: […]
# [3] = biological target: T3, JNK1 (Homo sapiens, UniProt P45983); test: 33PanQinase kinase assay, selectivity against JNK1; settings: ratio IC50 (JNK1)/IC50 (MKK4)
# T3 construct: purchased ProQinase GmbH, Freiburg, Germany (assay service)
# Method: as §1, §2, §3, §4, §5, §6, §7
# [4] = biological target: T4, MKK7 (Homo sapiens, UniProt O14733); test: 33PanQinase kinase assay, selectivity against MKK7; settings: ratio IC50 (MKK7)/IC50 (MKK4)
# T4 construct: purchased ProQinase GmbH, Freiburg, Germany (assay service)
# T4 sequence (O14733 1-419): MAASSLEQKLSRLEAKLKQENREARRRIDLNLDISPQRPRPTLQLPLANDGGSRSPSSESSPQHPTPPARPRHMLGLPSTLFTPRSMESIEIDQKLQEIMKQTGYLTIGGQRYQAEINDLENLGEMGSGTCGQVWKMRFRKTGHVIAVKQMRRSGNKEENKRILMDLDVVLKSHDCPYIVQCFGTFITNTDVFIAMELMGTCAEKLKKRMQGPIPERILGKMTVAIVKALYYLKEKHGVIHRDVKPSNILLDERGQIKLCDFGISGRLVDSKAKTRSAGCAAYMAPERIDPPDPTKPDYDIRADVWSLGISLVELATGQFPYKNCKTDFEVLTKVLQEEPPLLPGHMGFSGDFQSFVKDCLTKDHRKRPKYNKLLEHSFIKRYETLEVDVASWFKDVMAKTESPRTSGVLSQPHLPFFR
# Method: as §1, §2, §3, §4, §5, §6, §7
# T3 sequence (P45983 whole entry): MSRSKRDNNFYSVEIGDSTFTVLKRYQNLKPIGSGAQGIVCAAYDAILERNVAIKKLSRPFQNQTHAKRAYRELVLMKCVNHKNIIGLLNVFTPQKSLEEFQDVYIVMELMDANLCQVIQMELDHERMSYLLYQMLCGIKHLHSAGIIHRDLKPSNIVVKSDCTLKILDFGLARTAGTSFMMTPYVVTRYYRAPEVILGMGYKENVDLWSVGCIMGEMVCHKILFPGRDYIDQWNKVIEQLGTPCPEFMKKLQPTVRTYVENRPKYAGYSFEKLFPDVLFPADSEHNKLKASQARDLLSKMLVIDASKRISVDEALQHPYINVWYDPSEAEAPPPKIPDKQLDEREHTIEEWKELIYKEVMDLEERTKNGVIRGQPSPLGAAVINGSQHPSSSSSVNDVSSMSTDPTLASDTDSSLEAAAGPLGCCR
# T2 sequence (P15056 whole entry): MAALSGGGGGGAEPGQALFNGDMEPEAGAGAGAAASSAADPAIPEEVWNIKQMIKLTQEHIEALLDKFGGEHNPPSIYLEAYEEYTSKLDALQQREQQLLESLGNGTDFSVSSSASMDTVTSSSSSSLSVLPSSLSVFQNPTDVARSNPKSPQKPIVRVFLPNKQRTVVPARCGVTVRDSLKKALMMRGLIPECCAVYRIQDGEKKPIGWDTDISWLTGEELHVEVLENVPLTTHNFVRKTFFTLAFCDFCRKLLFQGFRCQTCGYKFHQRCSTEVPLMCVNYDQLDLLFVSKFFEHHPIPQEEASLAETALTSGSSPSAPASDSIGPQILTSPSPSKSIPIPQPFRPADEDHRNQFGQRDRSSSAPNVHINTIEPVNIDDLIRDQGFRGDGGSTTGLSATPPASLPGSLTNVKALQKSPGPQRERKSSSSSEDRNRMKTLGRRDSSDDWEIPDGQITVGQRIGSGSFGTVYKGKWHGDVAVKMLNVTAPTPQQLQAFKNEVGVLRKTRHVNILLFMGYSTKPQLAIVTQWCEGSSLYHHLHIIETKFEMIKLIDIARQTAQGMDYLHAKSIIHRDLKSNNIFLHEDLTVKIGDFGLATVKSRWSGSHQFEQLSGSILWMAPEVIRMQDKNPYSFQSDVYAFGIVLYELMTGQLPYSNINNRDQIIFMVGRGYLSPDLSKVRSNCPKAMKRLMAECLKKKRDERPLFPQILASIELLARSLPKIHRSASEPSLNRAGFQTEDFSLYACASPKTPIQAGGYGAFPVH
structure (smiles),measurement,setting,value
"CCCS(=O)(=O)Nc1c(F)ccc(C(=O)c2c[nH]c3ncc(-c4ccc(C(=O)NOCCO)cc4)cc23)c1F [Example 3, 4-(3-(2,4-difluoro-3-(propylsulfonamido)benzoyl)-1H-pyrrolo[2,3-b]pyridin-5-yl)-N-(2-hydroxyethoxy)benzamide]",IC50,[1],< 0.1 µM
same,"Selectivity BRaf, IC50(off-target)/IC50(MKK4)",[2],++ (100 ≥ IC50(off-target)/IC50(MKK4) > 10)
same,"Selectivity JNK1, IC50(off-target)/IC50(MKK4)",[3],++ (100 ≥ IC50(off-target)/IC50(MKK4) > 10)
same,"Selectivity MKK7, IC50(off-target)/IC50(MKK4)",[4],+++ (IC50(off-target)/IC50(MKK4) > 100)
CCCS(=O)(=O)Nc1c(F)cc(F)c(C(=O)c2c[nH]c3ncc(-c4cnc(C5CC5)nc4)cc23)c1F [Example 7],IC50,[1],< 0.1 µM
same,"Selectivity BRaf, IC50(off-target)/IC50(MKK4)",[2],+++ (IC50(off-target)/IC50(MKK4) > 100)
same,"Selectivity JNK1, IC50(off-target)/IC50(MKK4)",[3],+++ (IC50(off-target)/IC50(MKK4) > 100)
same,"Selectivity MKK7, IC50(off-target)/IC50(MKK4)",[4],+++ (IC50(off-target)/IC50(MKK4) > 100)
CCCS(=O)(=O)Nc1c(F)ccc(C(=O)c2c[nH]c3ncc(-c4cnc(C5CC5)nc4SC)cc23)c1F [Example 12],IC50,[1],0.1 to 1 µM
same,"Selectivity BRaf, IC50(off-target)/IC50(MKK4)",[2],++ (100 ≥ IC50(off-target)/IC50(MKK4) > 10)
same,"Selectivity JNK1, IC50(off-target)/IC50(MKK4)",[3],++ (100 ≥ IC50(off-target)/IC50(MKK4) > 10)
same,"Selectivity MKK7, IC50(off-target)/IC50(MKK4)",[4],+++ (IC50(off-target)/IC50(MKK4) > 100)
O=C(c1c(F)cc(F)c(NS(=O)(=O)Cc2ccccc2)c1F)c1c[nH]c2ncc(-c3cnc(C4CC4)nc3)cc12 [Example 14],IC50,[1],< 0.1 µM
same,"Selectivity BRaf, IC50(off-target)/IC50(MKK4)",[2],++ (100 ≥ IC50(off-target)/IC50(MKK4) > 10)
same,"Selectivity JNK1, IC50(off-target)/IC50(MKK4)",[3],++ (100 ≥ IC50(off-target)/IC50(MKK4) > 10)
same,"Selectivity MKK7, IC50(off-target)/IC50(MKK4)",[4],+++ (IC50(off-target)/IC50(MKK4) > 100)
CCCS(=O)(=O)Nc1c(F)ccc(C(=O)c2c[nH]c3ncc(-c4cnc(C)nc4C)cc23)c1F [Example 10],IC50,[1],< 0.1 µM
same,"Selectivity BRaf, IC50(off-target)/IC50(MKK4)",[2],+++ (IC50(off-target)/IC50(MKK4) > 100)
same,"Selectivity JNK1, IC50(off-target)/IC50(MKK4)",[3],+++ (IC50(off-target)/IC50(MKK4) > 100)
same,"Selectivity MKK7, IC50(off-target)/IC50(MKK4)",[4],+++ (IC50(off-target)/IC50(MKK4) > 100)
CCCS(=O)(=O)Nc1c(F)ccc(C(=O)c2c[nH]c3ncc(-c4cnc(C5CCCC5)nc4)cc23)c1F [Example 6],IC50,[1],1 to 10 µM
same,"Selectivity BRaf, IC50(off-target)/IC50(MKK4)",[2],+++ (IC50(off-target)/IC50(MKK4) > 100)
same,"Selectivity JNK1, IC50(off-target)/IC50(MKK4)",[3],++ (100 ≥ IC50(off-target)/IC50(MKK4) > 10)
same,"Selectivity MKK7, IC50(off-target)/IC50(MKK4)",[4],+++ (IC50(off-target)/IC50(MKK4) > 100)
CCCS(=O)(=O)Nc1c(F)ccc(C(=O)c2c[nH]c3ncc(-c4cnc(OCC(C)(C)C)nc4)cc23)c1F [Example 13],IC50,[1],> 10 µM
same,"Selectivity BRaf, IC50(off-target)/IC50(MKK4)",[2],+ (10 ≥ IC50(off-target)/IC50(MKK4) > 3)
same,"Selectivity JNK1, IC50(off-target)/IC50(MKK4)",[3],+ (10 ≥ IC50(off-target)/IC50(MKK4) > 3)
same,"Selectivity MKK7, IC50(off-target)/IC50(MKK4)",[4],+ (10 ≥ IC50(off-target)/IC50(MKK4) > 3)
CCCS(=O)(=O)Nc1c(F)ccc(C(=O)c2c[nH]c3ncc(-c4cncnc4C)cc23)c1F [Example 9],IC50,[1],< 0.1 µM
same,"Selectivity BRaf, IC50(off-target)/IC50(MKK4)",[2],+++ (IC50(off-target)/IC50(MKK4) > 100)
same,"Selectivity JNK1, IC50(off-target)/IC50(MKK4)",[3],++ (100 ≥ IC50(off-target)/IC50(MKK4) > 10)
same,"Selectivity MKK7, IC50(off-target)/IC50(MKK4)",[4],+++ (IC50(off-target)/IC50(MKK4) > 100)
CCCS(=O)(=O)Nc1c(F)ccc(C(=O)c2c[nH]c3ncc(-c4cnc(C5CC5)nc4C)cc23)c1F [Example 11],IC50,[1],< 0.1 µM
same,"Selectivity BRaf, IC50(off-target)/IC50(MKK4)",[2],+++ (IC50(off-target)/IC50(MKK4) > 100)
same,"Selectivity JNK1, IC50(off-target)/IC50(MKK4)",[3],+++ (IC50(off-target)/IC50(MKK4) > 100)
same,"Selectivity MKK7, IC50(off-target)/IC50(MKK4)",[4],+++ (IC50(off-target)/IC50(MKK4) > 100)
CCCS(=O)(=O)Nc1c(F)ccc(C(=O)c2c[nH]c3ncc(-c4cnc(OC)nc4C)cc23)c1F [Example 8],IC50,[1],< 0.1 µM
same,"Selectivity BRaf, IC50(off-target)/IC50(MKK4)",[2],++ (100 ≥ IC50(off-target)/IC50(MKK4) > 10)
same,"Selectivity JNK1, IC50(off-target)/IC50(MKK4)",[3],+ (10 ≥ IC50(off-target)/IC50(MKK4) > 3)
same,"Selectivity MKK7, IC50(off-target)/IC50(MKK4)",[4],+++ (IC50(off-target)/IC50(MKK4) > 100)
CCCS(=O)(=O)Nc1c(F)ccc(C(=O)c2c[nH]c3ncc(-c4ccc(P(C)(C)=O)cc4)cc23)c1F [Example 4],IC50,[1],< 0.1 µM
same,"Selectivity BRaf, IC50(off-target)/IC50(MKK4)",[2],++ (100 ≥ IC50(off-target)/IC50(MKK4) > 10)
same,"Selectivity JNK1, IC50(off-target)/IC50(MKK4)",[3],++ (100 ≥ IC50(off-target)/IC50(MKK4) > 10)
same,"Selectivity MKK7, IC50(off-target)/IC50(MKK4)",[4],+++ (IC50(off-target)/IC50(MKK4) > 100)
CCCS(=O)(=O)Nc1c(F)ccc(C(=O)c2c[nH]c3ncc(-c4cnc(C5CCC5)nc4)cc23)c1F [Example 5],IC50,[1],0.1 to 1 µM
same,"Selectivity BRaf, IC50(off-target)/IC50(MKK4)",[2],+++ (IC50(off-target)/IC50(MKK4) > 100)
same,"Selectivity JNK1, IC50(off-target)/IC50(MKK4)",[3],+++ (IC50(off-target)/IC50(MKK4) > 100)
same,"Selectivity MKK7, IC50(off-target)/IC50(MKK4)",[4],+++ (IC50(off-target)/IC50(MKK4) > 100)
